In general, EC50 refers to the midpoint of the concentration-response curve.

The target of test [1] is GABA-A receptor; alpha-5/beta-3/gamma-2 (Homo sapiens) (UniProt P18507+P28472+P31644). Put plainly: Maximal response relative to Gamma-aminobutyric acid A against human Gamma-aminobutyric-acid A receptor alpha-5-beta-3-gamma-2 expressed in Xenopus oocytes. The note with it: Oocyte. Format: functional, cell-based.
In test [2] the target is T1, GABA-A receptor; alpha-6/beta-3/gamma-2 (Homo sapiens, UniProt P18507+P28472+Q16445). Description: Effective agonist dose for human Gamma-aminobutyric acid A receptor alpha-6-beta-3-gamma-2. It counts as functional.
Test [3] has as its target GABA-A receptor; alpha-3/beta-3/gamma-2 (Homo sapiens) (UniProt P18507+P28472+P34903). Put plainly: Maximal response relative to Gamma-aminobutyric acid A against human Gamma-aminobutyric-acid A receptor alpha-3-beta-3-gamma-2 expressed in Xenopus oocytes. Format: functional, cell-based. The note with it: Oocyte.
The target in test [4] is T1, GABA-A receptor; alpha-6/beta-3/gamma-2. Description: Maximal response relative to Gamma-aminobutyric acid A against human Gamma-aminobutyric-acid A receptor alpha-6-beta-3-gamma-2 expressed in Xenopus oocytes. It counts as functional, cell-based. The note with it: Oocyte.
In test [5] the target is T2, GABA A receptor alpha-4/beta-3/gamma-2 (Homo sapiens, UniProt P18507+P28472+P48169). Description: Effective agonist dose for human Gamma-aminobutyric acid A receptor alpha-4-beta-3-gamma-2. It counts as functional.
Test [6] has as its target T2, GABA A receptor alpha-4/beta-3/gamma-2. Description: Maximal response relative to Gamma-aminobutyric acid A against human Gamma-aminobutyric-acid A receptor alpha-4-beta-3-gamma-2 expressed in Xenopus oocytes. Format: functional, cell-based. As to conditions: Oocyte.
For test [7], the target named is T3, GABA-A receptor; alpha-5/beta-3/gamma-2 (Homo sapiens, UniProt P18507+P28472+P31644).
T3 sequence (P18507 whole entry): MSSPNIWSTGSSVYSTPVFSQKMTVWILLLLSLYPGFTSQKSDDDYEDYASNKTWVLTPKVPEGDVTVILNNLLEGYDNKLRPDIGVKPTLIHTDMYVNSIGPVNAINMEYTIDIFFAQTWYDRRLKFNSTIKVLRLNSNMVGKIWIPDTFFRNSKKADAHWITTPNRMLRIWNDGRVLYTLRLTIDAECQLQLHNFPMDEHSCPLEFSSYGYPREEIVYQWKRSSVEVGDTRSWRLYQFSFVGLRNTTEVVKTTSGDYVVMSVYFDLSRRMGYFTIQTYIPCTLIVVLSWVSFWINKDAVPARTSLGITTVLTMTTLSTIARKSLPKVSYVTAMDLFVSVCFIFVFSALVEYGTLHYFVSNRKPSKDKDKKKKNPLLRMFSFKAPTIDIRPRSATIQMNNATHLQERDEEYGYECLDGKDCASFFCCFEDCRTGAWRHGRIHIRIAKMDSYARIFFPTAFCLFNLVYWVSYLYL
T3 sequence (P28472 whole entry): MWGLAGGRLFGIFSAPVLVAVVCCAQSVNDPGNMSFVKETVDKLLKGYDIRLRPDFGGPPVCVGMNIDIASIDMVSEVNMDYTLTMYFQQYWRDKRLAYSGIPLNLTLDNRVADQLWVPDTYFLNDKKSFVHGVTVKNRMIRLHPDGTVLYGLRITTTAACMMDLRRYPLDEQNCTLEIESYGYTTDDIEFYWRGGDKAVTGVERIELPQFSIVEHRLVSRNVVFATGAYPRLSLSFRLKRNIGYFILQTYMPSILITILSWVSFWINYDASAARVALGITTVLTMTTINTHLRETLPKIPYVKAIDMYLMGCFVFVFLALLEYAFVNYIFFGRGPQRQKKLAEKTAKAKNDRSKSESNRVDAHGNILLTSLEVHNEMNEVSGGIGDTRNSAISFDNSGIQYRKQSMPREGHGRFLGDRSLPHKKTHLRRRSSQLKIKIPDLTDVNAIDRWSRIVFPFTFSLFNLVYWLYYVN
T3 sequence (P31644 whole entry): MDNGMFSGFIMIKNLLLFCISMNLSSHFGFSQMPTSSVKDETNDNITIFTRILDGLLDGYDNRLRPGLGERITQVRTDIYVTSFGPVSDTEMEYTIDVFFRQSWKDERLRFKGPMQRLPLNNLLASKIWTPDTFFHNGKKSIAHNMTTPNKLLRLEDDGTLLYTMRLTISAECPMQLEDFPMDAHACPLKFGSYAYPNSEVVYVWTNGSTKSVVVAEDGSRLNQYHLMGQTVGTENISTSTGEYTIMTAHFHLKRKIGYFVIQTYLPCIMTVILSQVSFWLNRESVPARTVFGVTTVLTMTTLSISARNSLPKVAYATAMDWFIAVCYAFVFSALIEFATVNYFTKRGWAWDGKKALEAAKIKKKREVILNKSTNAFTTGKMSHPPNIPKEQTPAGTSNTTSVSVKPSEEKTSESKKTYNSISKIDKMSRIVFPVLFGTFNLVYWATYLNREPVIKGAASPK
Description: Effective agonist dose for human Gamma-aminobutyric acid A receptor alpha-5-beta-3-gamma-2 expressed in Xenopus oocytes. Format: functional, cell-based, Oocyte.

Test [8] addresses T4, GABA-A receptor; alpha-2/beta-3/gamma-2 (Homo sapiens, UniProt P18507+P28472+P47869).
T4 sequence (P18507 whole entry): T3 sequence (P18507 whole entry)
T4 sequence (P28472 whole entry): T3 sequence (P28472 whole entry)
T4 sequence (P47869 whole entry): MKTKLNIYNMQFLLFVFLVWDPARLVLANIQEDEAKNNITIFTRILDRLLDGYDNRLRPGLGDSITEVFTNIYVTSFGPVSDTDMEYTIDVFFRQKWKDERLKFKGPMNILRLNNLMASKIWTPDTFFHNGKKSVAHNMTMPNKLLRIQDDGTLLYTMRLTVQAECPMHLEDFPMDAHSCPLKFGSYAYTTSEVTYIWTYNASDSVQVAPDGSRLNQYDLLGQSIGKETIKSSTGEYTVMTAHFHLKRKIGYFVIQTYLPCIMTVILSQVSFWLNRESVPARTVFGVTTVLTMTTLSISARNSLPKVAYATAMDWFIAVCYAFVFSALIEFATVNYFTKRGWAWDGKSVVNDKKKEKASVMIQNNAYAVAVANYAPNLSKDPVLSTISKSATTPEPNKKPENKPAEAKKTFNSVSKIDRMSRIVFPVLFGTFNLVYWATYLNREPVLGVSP
Put plainly: Effective dose for agonist activity on human Gamma-aminobutyric acid A receptor alpha-2-beta-3-gamma-2 in Xenopus oocytes. It counts as functional, cell-based, Oocyte.

Test [9] concerns the target GABA-A receptor; alpha-2/beta-3/gamma-2 (Homo sapiens) (UniProt P18507+P28472+P47869). Put plainly: Maximal response relative to Gamma-aminobutyric acid A against human Gamma-aminobutyric-acid A receptor alpha-2-beta-3-gamma-2 expressed in Xenopus oocytes. It counts as functional, cell-based. The note with it: Oocyte.
Test [10] deals with T5, GABA-A receptor; alpha-1/beta-3/gamma-2 (Homo sapiens, UniProt P14867+P18507+P28472).
T5 sequence (P14867 whole entry): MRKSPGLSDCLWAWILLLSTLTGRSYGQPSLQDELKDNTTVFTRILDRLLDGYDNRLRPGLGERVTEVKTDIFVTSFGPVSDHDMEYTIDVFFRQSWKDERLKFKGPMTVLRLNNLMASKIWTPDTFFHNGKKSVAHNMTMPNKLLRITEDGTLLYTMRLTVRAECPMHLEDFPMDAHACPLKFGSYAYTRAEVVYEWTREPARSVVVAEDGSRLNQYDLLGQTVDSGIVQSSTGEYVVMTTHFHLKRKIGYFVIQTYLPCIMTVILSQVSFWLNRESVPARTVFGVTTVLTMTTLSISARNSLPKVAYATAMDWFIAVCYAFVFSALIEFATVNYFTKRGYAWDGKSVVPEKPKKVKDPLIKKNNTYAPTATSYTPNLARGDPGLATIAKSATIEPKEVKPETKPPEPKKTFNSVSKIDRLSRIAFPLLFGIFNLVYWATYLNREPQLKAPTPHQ
T5 sequence (P18507 whole entry): T3 sequence (P18507 whole entry)
T5 sequence (P28472 whole entry): T3 sequence (P28472 whole entry)
Put plainly: Effective agonist dose for human Gamma-aminobutyric acid A receptor alpha-1-beta-3-gamma-2 expressed in Xenopus oocytes. It counts as functional, cell-based, Oocyte.

Test [11] has as its target T6, GABA-A receptor; alpha-3/beta-3/gamma-2 (Homo sapiens, UniProt P18507+P28472+P34903).
T6 sequence (P18507 whole entry): T3 sequence (P18507 whole entry)
T6 sequence (P28472 whole entry): T3 sequence (P28472 whole entry)
T6 sequence (P34903 whole entry): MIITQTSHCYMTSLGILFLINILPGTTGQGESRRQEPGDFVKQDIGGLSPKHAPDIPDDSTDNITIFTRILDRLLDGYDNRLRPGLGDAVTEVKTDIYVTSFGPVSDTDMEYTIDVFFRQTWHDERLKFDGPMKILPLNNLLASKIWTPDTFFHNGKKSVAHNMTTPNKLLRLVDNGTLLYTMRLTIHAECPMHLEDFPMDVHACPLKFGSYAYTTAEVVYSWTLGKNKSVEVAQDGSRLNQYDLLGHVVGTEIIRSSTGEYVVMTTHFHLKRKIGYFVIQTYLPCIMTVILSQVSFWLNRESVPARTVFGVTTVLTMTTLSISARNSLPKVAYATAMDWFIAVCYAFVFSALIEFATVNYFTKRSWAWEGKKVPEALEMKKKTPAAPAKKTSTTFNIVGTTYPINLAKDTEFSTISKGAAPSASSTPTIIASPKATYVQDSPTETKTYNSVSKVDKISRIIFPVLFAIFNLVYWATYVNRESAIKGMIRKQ
Put plainly: Agonist activity on human Gamma-aminobutyric acid A receptor alpha-3-beta-3-gamma-2 expressed in Xenopus oocytes. Format: functional, cell-based, Oocyte.

Test [12] addresses GABA-A receptor; alpha-1/beta-3/gamma-2 (Homo sapiens) (UniProt P14867+P18507+P28472). Description: Maximal response relative to Gamma-aminobutyric acid A against human Gamma-aminobutyric-acid A receptor alpha-1-beta-3-gamma-2 expressed in Xenopus oocytes. Format: functional, cell-based. As to conditions: Oocyte.

T2 sequence (P48169 whole entry, one chain of several): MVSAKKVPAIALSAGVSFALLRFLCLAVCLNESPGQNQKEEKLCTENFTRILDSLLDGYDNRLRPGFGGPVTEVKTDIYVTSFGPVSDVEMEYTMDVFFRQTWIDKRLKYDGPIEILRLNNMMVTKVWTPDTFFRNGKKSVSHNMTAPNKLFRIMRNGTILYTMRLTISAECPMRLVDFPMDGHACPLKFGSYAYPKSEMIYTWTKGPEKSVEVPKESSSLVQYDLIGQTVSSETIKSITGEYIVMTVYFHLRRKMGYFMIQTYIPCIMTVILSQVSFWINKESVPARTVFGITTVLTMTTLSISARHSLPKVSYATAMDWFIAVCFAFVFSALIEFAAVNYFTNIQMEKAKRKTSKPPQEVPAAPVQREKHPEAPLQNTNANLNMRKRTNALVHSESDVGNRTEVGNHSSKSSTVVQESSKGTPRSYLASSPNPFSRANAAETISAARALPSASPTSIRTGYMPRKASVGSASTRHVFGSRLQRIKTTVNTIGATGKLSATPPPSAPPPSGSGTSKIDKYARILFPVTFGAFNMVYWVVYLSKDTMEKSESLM
T1 sequence (Q16445 whole entry, one chain of several): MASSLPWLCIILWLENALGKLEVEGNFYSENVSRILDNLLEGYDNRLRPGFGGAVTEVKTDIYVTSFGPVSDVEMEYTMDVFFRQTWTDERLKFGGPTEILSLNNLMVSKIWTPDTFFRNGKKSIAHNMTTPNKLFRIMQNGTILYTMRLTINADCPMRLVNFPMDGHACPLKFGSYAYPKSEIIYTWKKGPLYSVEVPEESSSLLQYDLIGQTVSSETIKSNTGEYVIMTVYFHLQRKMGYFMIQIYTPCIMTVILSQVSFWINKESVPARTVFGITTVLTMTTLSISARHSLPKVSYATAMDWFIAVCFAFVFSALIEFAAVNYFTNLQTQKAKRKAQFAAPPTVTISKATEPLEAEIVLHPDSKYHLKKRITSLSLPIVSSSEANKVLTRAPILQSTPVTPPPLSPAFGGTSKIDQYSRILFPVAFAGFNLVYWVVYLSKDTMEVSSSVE

`O=[Se](O)C1CCNCC1`: the Max in test [1] stood at 3; in test [3] it was 28; in test [4], 13; in test [6] it was 0; in test [9] it was 2; in [12], 3. In addition, the concentration for a half-maximal effect (EC50) is 240 µM in [2]; 160 µM in test [5]; 420 µM in test [7]; 170 µM in [8]; 200 µM in test [10]; 180 µM in [11].

The record behind these values is ChEMBL document CHEMBL1134098, “Bioisosteric determinants for subtype selectivity of ligands for heteromeric GABA(A) receptors” (Bioorg Med Chem Lett, 2001).
